According to patent US11110303B2, “Hapten-enhanced chemoimmunotherapy by ultra-minimum incision personalized intratumoral chemoimmunotherapy” (priority 2014, dated 2021):
Like-named read-outs stand apart in the source and are kept apart here.

## Nc1ccn([C@@H]2O[C@H](CO)[C@@H](O)[C@@H]2O)c(=O)n1 [Ara-C alone, Cytosine Arabinoside]
12 hours after intratumoral injection
  drug retention in tumor: 16%
24 hours after intratumoral injection
  retention rate of Ara-C in tumor: 0%
Fifteen minutes after intratumoral injection
  retention rate of Ara-C in tumor: 100%
Four hours after intratumoral injection
  retention rate of Ara-C in tumor: 16%
